Measurements reported in patent US11000033B2, “Ketone or oxime compound, and herbicide” (NISSAN CHEMICAL CORPORATION, priority 2014, dated 2021).

Columns and labels:
Assay type in all cases: in vivo
Lolium multiflorum Lam. = test: Test Example 5: herbicidal effect by foliage application, plastic box (symbol K); conditions: 320 g/ha, 3 weeks after application
Procedure, shortened: (§1)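 After sowing into sterilized diluvial soil and growing two weeks under glass at 25° C. to 30° C., seedlings receive a uniform foliar spray of diluted emulsion. Damage is judged visually three weeks on.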

corn [1] = test: Test Example 4: effect on crop by soil treatment (symbol c); conditions: application herbicide amount 320 g/ha
Procedure, shortened: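 Steps: fill box with sterilized diluvial soil; sow seed spot-like; cover with ~1.5 cm soil; grow in greenhouse (25° C. to 30° C.).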

Digitaria ciliaris = test: Test Example 5: herbicidal effect by foliage application, plastic box (symbol F); conditions: 320 g/ha, 3 weeks after application
Procedure, shortened: as §1

Scirpus juncoides [2] = test: Test Example 2: herbicidal activity, application during weed generation in submerged conditions (symbol B); conditions: Table 23; application herbicide amount 320 g/ha; grade 0-5 by criteria of Test Example 1
Procedure, shortened: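 Visual herbicidal ratings, taken three weeks after dosing, reflect post-emergence water-surface application to seedlings at one to two leaves. Conditions: co-sown weeds in alluvial soil flooded to 4 cm, greenhouse held at 25° C. to 30° C.; compound given as water-diluted emulsion at a fixed herbicide amount.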

rice = test: Test Example 4: effect on crop by soil treatment (symbol b); conditions: application herbicide amount 320 g/ha
Procedure, shortened: (§2)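 Seeds were sown in spots on sterilized diluvial soil in a plastic box and covered with about 1.5 cm of soil. Plants were then grown in a greenhouse at 25° C. to 30° C.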

Monochoria vaginalis = test: Test Example 1: herbicidal activity, application before weed generation in submerged conditions (symbol C); conditions: application herbicide amount 320 g/ha
Procedure, shortened: (§3)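 Scores run 0 to 5 by herbicidal ratio, with 5 meaning 90% or more and 0 meaning 5% or lower, read 3 weeks after treatment. Compound was applied as a diluted emulsion to the water surface of submerged alluvial-soil pots on the day weed seeds were sown.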

Scirpus juncoides [3] = test: Test Example 1: herbicidal activity, application before weed generation in submerged conditions (symbol B); conditions: application herbicide amount 320 g/ha
Procedure, shortened: as §3

Avena fatua = test: Test Example 4: herbicidal effect by soil treatment (symbol I); conditions: application herbicide amount 320 g/ha
Procedure, shortened: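 Seeds were sown in sterilized diluvial soil, covered with about 1.5 cm of soil, and the soil surface was sprayed with a water-diluted emulsion of the compound at a predetermined rate. Plants grew in a greenhouse at 25° C. to 30° C.; effects were scored visually 3 weeks after application.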

rapeseed = test: Test Example 4: effect on crop by soil treatment (symbol g); conditions: application herbicide amount 320 g/ha
Procedure, shortened: as §2

Galium spurium = test: Test Example 5: herbicidal effect by foliage application, plastic box (symbol Q); conditions: 320 g/ha, 3 weeks after application
Procedure, shortened: as §1

soybean = test: Test Example 5: effect on crop by foliage application, plastic box (symbol d); conditions: 320 g/ha, 3 weeks after application
Procedure, shortened: (§4)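 Soil: sterilized diluvial. Container: plastic box, 21 × 13 cm, 7 cm deep. Sowing: spot-like, ~1.5 cm cover. Growth: greenhouse, 25° C. to 30° C.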

Chenopodium album = test: Test Example 5: herbicidal effect by foliage application, plastic box (symbol O); conditions: 320 g/ha, 3 weeks after application
Procedure, shortened: as §1

Veronica persica = test: Test Example 5: herbicidal effect by foliage application, plastic box (symbol R); conditions: 320 g/ha, 3 weeks after application
Procedure, shortened: as §1

corn [4] = test: Test Example 5: effect on crop by foliage application, plastic box (symbol c); conditions: 320 g/ha, 3 weeks after application
Procedure, shortened: as §4

Row | SMILES | K: Lolium multiflorum Lam., herbicidal effect grade (Lolium multiflorum Lam.) | c: corn, effect on crop grade (corn [1]) | F: Digitaria ciliaris, herbicidal effect grade (Digitaria ciliaris) | Herbicidal effect grade, B: Scirpus juncoides (Scirpus juncoides [2]) | b: directly sowed rice plant, effect on crop grade (rice) | Herbicidal effect grade, C: Monochoria vaginalis (Monochoria vaginalis) | Herbicidal effect grade, B: Scirpus juncoides (Scirpus juncoides [3]) | I: Avena fatua, herbicidal effect grade (Avena fatua) | g: rapeseed, effect on crop grade (rapeseed) | Q: Galium spurium, herbicidal effect grade (Galium spurium) | d: soybean, effect on crop grade (soybean) | O: Chenopodium album, herbicidal effect grade (Chenopodium album) | R: Veronica persica, herbicidal effect grade (Veronica persica) | K: Lolium multiflorum Lam., herbicidal effect (criteria of Test Example 1) (Lolium multiflorum Lam.) | F: Digitaria ciliaris, herbicidal effect (criteria of Test Example 1) (Digitaria ciliaris) | Q: Galium spurium, herbicidal effect (criteria of Test Example 1) (Galium spurium) | d: soybean, effect on crop (criteria of Test Example 1) (soybean) | O: Chenopodium album, herbicidal effect (criteria of Test Example 1) (Chenopodium album) | R: Veronica persica, herbicidal effect (criteria of Test Example 1) (Veronica persica) | c: corn, effect on crop (criteria of Test Example 1) (corn [4]) | further results
1 | CON=C(C)CC1CC(O)=C(c2c(C)cc(-c3ccccn3)cc2C)C1=O (mixture of isomers) [6-051] | 5 (Herbicidal ratio of 90% or more (almost completely withered)) | 1 (Herbicidal ratio of 5% or higher and lower than 20%) | 5 (Herbicidal ratio of 90% or more (almost completely withered)) | 4 (Herbicidal ratio of 70% or higher and lower than 90%) | 5 (Herbicidal ratio of 90% or more (almost completely withered)) | 2 (Herbicidal ratio of 20% or higher and lower than 40%) | 4 (Herbicidal ratio of 70% or higher and lower than 90%) | 1 (Herbicidal ratio of 5% or higher and lower than 20%) | 4 (Herbicidal ratio of 70% or higher and lower than 90%) | 4 (Herbicidal ratio of 70% or higher and lower than 90%) | 1 (Herbicidal ratio of 5% or higher and lower than 20%) | 5 (Herbicidal ratio of 90% or more (almost completely withered)) | 4 (Herbicidal ratio of 70% or higher and lower than 90%) |  |  |  |  |  |  |  | c: corn, effect on crop grade (corn [4]): 5 (Herbicidal ratio of 90% or more (almost completely withered))
2 | CON=C(C)CC1CC(O)=C(c2c(C)cc(OCc3ccncc3)cc2C)C1=O (mixture of isomers) [6-053] | 5 (Herbicidal ratio of 90% or more (almost completely withered)) | 1 (Herbicidal ratio of 5% or higher and lower than 20%) | 5 (Herbicidal ratio of 90% or more (almost completely withered)) | 1 (Herbicidal ratio of 5% or higher and lower than 20%) | 2 (Herbicidal ratio of 20% or higher and lower than 40%) | 1 (Herbicidal ratio of 5% or higher and lower than 20%) | 2 (Herbicidal ratio of 20% or higher and lower than 40%) | 1 (Herbicidal ratio of 5% or higher and lower than 20%) | 0 (Herbicidal ratio of 5% or lower (almost no effect)) | 0 (Herbicidal ratio of 5% or lower (almost no effect)) | 0 (Herbicidal ratio of 5% or lower (almost no effect)) | 0 (Herbicidal ratio of 5% or lower (almost no effect)) | 0 (Herbicidal ratio of 5% or lower (almost no effect)) |  |  |  |  |  |  |  | c: corn, effect on crop grade (corn [4]): 2 (Herbicidal ratio of 20% or higher and lower than 40%)
3 | CON=C(C)CC1CC(O)=C(c2c(C)cc(-c3ncccn3)cc2C)C1=O (mixture of isomers) [6-057] |  | 1 (Herbicidal ratio of 5% or higher and lower than 20%) |  | 2 (Herbicidal ratio of 20% or higher and lower than 40%) | 5 (Herbicidal ratio of 90% or more (almost completely withered)) | 1 (Herbicidal ratio of 5% or higher and lower than 20%) | 3 (Herbicidal ratio of 40% or higher and lower than 70%) | 0 (Herbicidal ratio of 5% or lower (almost no effect)) | 1 (Herbicidal ratio of 5% or higher and lower than 20%) |  |  |  |  | 5 (Herbicidal ratio of 90% or more (almost completely withered)) | 5 (Herbicidal ratio of 90% or more (almost completely withered)) | 3 (Herbicidal ratio of 40% or higher and lower than 70%) | 3 (Herbicidal ratio of 40% or higher and lower than 70%) | 4 (Herbicidal ratio of 70% or higher and lower than 90%) | 4 (Herbicidal ratio of 70% or higher and lower than 90%) | 5 (Herbicidal ratio of 90% or more (almost completely withered)) | 
4 | CON=C(C)CC1CC(O)=C(c2c(C)cc(-c3ccc(F)cc3)cc2C)C1=O (mixture of isomers) [6-058] |  | 5 (Herbicidal ratio of 90% or more (almost completely withered)) |  | 5 (Herbicidal ratio of 90% or more (almost completely withered)) | 5 (Herbicidal ratio of 90% or more (almost completely withered)) | 5 (Herbicidal ratio of 90% or more (almost completely withered)) | 5 (Herbicidal ratio of 90% or more (almost completely withered)) | 5 (Herbicidal ratio of 90% or more (almost completely withered)) | 5 (Herbicidal ratio of 90% or more (almost completely withered)) |  |  |  |  | 5 (Herbicidal ratio of 90% or more (almost completely withered)) | 5 (Herbicidal ratio of 90% or more (almost completely withered)) | 5 (Herbicidal ratio of 90% or more (almost completely withered)) | 2 (Herbicidal ratio of 20% or higher and lower than 40%) | 5 (Herbicidal ratio of 90% or more (almost completely withered)) | 5 (Herbicidal ratio of 90% or more (almost completely withered)) | 5 (Herbicidal ratio of 90% or more (almost completely withered)) | 
5 | CON=C(C)CC1CC(OC(=O)N2CCOCC2)=C(c2c(C)cc(-c3ccc(F)cc3)cc2C)C1=O (mixture of isomers) [6-059] |  | 0 (Herbicidal ratio of 5% or lower (almost no effect)) |  | 4 (Herbicidal ratio of 70% or higher and lower than 90%) | 0 (Herbicidal ratio of 5% or lower (almost no effect)) | 4 (Herbicidal ratio of 70% or higher and lower than 90%) | 5 (Herbicidal ratio of 90% or more (almost completely withered)) | 3 (Herbicidal ratio of 40% or higher and lower than 70%) | 0 (Herbicidal ratio of 5% or lower (almost no effect)) |  |  |  |  | 5 (Herbicidal ratio of 90% or more (almost completely withered)) | 5 (Herbicidal ratio of 90% or more (almost completely withered)) | 4 (Herbicidal ratio of 70% or higher and lower than 90%) | 0 (Herbicidal ratio of 5% or lower (almost no effect)) | 5 (Herbicidal ratio of 90% or more (almost completely withered)) | 5 (Herbicidal ratio of 90% or more (almost completely withered)) | 5 (Herbicidal ratio of 90% or more (almost completely withered)) | 
6 | CON=C(C)CC1CC(OC(=O)COc2ccccc2)=C(c2c(C)cc(-c3ccc(Cl)cc3)cc2OC)C1=O (centres unmarked) [6-079] |  | 0 (Herbicidal ratio of 5% or lower (almost no effect)) |  | 2 (Herbicidal ratio of 20% or higher and lower than 40%) | 3 (Herbicidal ratio of 40% or higher and lower than 70%) | 2 (Herbicidal ratio of 20% or higher and lower than 40%) | 0 (Herbicidal ratio of 5% or lower (almost no effect)) | 0 (Herbicidal ratio of 5% or lower (almost no effect)) | 0 (Herbicidal ratio of 5% or lower (almost no effect)) |  |  |  |  | 5 (Herbicidal ratio of 90% or more (almost completely withered)) | 5 (Herbicidal ratio of 90% or more (almost completely withered)) | 4 (Herbicidal ratio of 70% or higher and lower than 90%) |  | 3 (Herbicidal ratio of 40% or higher and lower than 70%) | 3 (Herbicidal ratio of 40% or higher and lower than 70%) | 5 (Herbicidal ratio of 90% or more (almost completely withered)) | 
